Assay results reported in PubChem BioAssay (NCI).
Values joined by “and” are separate entries in the source; they are usually repeats but may differ in a detail not shown here. Identical values can stand only once.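 96-well plates; 48 h exposure; 5 concentrations. Endpoints by linear interpolation between flanking doses. Not reached: highest tested concentration assigned. GI50: concentration for 50% inhibition of growth. Definition used: TGI = concentration required for complete inhibition of growth.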

Key:
Test in all cases: NCI tumour cell line growth inhibition, 48 h
SNB-19 CNS = tested on: SNB-19 CNS
NCI-H522 lung = tested on: NCI-H522 lung
HOP-92 NSCLC = tested on: HOP-92 NSCLC
COLO 205 colon = tested on: COLO 205 colon
SF-295 CNS = tested on: SF-295 CNS
SF-539 CNS = tested on: SF-539 CNS
NCI/ADR-RES ovarian = tested on: NCI/ADR-RES ovarian
SF-268 CNS = tested on: SF-268 CNS
NCI-H460 lung = tested on: NCI-H460 lung
HCT-116 colon = tested on: HCT-116 colon

Structure (SMILES) | TGI (SNB-19 CNS) [µM] | TGI (NCI-H522 lung) | TGI (HOP-92 NSCLC) | TGI (COLO 205 colon) | TGI (SF-295 CNS) | TGI (SF-539 CNS) | TGI (NCI/ADR-RES ovarian) | TGI (SF-268 CNS) | TGI (NCI-H460 lung) | TGI (HCT-116 colon) | GI50 (NCI-H522 lung) | GI50 (NCI-H460 lung)
O[C@]12C=C(c3nccc4c3[nH]c3ccccc34)[C@@H]3CCN(CCCC/C=C\CC1)C[C@@]31CC3/C=C\CCCCN3[C@H]12 (some centres not stated) | 16.2 | 2.21 µM | 0.741 µM | 1.13 µM | 2.67 µM | 4.6 µM | 4.16 µM | 8.59 µM | 2.02 µM | 0.647 µM |  | 
FC(F)(F)c1ccc(C2ON=C(c3ccccc3)N2C23CC4CC(CC(C4)C2)C3)cc1 (configuration not stated) | > 10 | > 10 µM | > 10 µM | > 10 µM | > 10 µM | > 10 µM | > 10 µM | > 10 µM | > 10 µM | > 10 µM |  | 
CC(C)=CCCC(C)(OC1OC(CO)C(O)C(O)C1O)C1CCC2(C)C1C(O)CC1C3(C)CCC(O)C(C)(C)C3C(OC3OC(CO)C(O)C(O)C3OC3OC(C)C(O)C(O)C3O)CC12C (configuration not stated) (tested in a mixture with another compound) | > 75 | > 75 µM | > 75 µM | > 75 µM | > 75 µM | > 75 µM | > 75 µM | > 75 µM | > 7.5 µM | > 75 µM |  | 
O=C(CNc1ccccn1)Nn1cnc2ccc(S(=O)(=O)Nc3ccccn3)cc2c1=O | > 100 | > 100 µM | > 100 µM | > 100 µM | > 100 µM | > 100 µM | > 100 µM | > 100 µM | > 100 µM | > 100 µM |  | 
C[C@@H](CC(O)C(O)C(C)(C)O)C1CCC23CC12CCC1[C@@]2(C)CCC(O)C(C)(C)C2CC(OC2OC(CO)C(O)C(O)C2O)[C@]13C (some centres not stated) | > 10 | > 10 µM | > 10 µM | > 10 µM | > 10 µM | > 10 µM | > 10 µM | > 10 µM | > 10 µM | > 10 µM |  | 
O=C1Oc2ccccc2C1C/C(=N\Nc1ccccc1)c1ccccc1O (configuration not stated) | > 100 | 98 µM | 78.8 µM | 32.8 µM | > 100 µM | > 100 µM | 70.9 µM | > 100 µM | > 100 µM | > 100 µM |  | 
CNC(=O)c1n[nH]n(C2CCCCC2)c1=S | > 100 | > 100 µM | > 100 µM | > 100 µM | > 100 µM | > 100 µM | > 100 µM | > 100 µM | > 100 µM | > 100 µM |  | 
CCc1n[nH]c(=O)n1CCCCCCCCn1c(CC)n[nH]c1=O | > 100 | > 100 µM | > 100 µM | > 100 µM | > 100 µM | > 100 µM | > 100 µM | > 100 µM | > 100 µM | > 100 µM |  | 
O=C(O)c1nc2ccccc2nc1Nc1ccc(Cl)c(Cl)c1 | > 100 | 60.1 µM | 59 µM | 82.6 µM | 69.8 µM | 43.7 µM | > 100 µM | > 100 µM | 82.5 µM | 76.7 µM |  | 
CN(C)c1ccc(/C=C/C(=O)c2ccc(O)cc2)cc1 | > 100 | 8.58 µM | > 100 µM | 26.6 µM | > 41.6 µM | 13.5 µM | > 40.6 µM | > 100 µM | 22.8 µM | > 68 µM |  | 
CCOC(=O)C(NC(=O)OCc1ccccc1)C(=O)O (configuration not stated) | > 100 | > 100 µM | > 100 µM | > 100 µM | > 100 µM | > 100 µM | > 100 µM | > 100 µM | > 100 µM | > 100 µM |  | 
CCC(NC(C)c1ccccc1)C(=O)c1ccc(OCc2ccccc2)c(OCc2ccccc2)c1 (configuration not stated) | > 100 | > 100 µM | > 100 µM | > 100 µM | > 100 µM | > 100 µM | > 100 µM | > 100 µM | > 100 µM | > 100 µM |  | 
C=C1CC(C)(COc2ccc3c(C)c(Cl)c(=O)oc3c2)OC1=O (configuration not stated) | 26.7 | 2.1 µM | 4.41 µM | 2.43 µM | 21.4 µM | 15.6 µM | 14.2 µM | 19.2 µM | 21.2 µM | 1.57 µM |  | 
CC1=CC(=O)CC2(C)CCC(C(C)CC(=O)CC(C)C)CC12OO (configuration not stated) | > 100 | 19.5 µM and 26.9 µM | 31 µM and 37 µM | 27.8 µM and 34.8 µM | 31 µM and 30 µM | 28.9 µM and 30 µM | 56.6 µM and 81.2 µM | 44.1 µM and 32.6 µM | 25.1 µM and > 100 µM | 30.2 µM and 29.7 µM | 4.8 µM and 12.6 µM | 11.6 µM and 31 µM
O=C1CN(c2ccccc2)Cc2nc(Cl)ccc2N1 | > 100 | > 100 µM | > 100 µM | > 100 µM | > 100 µM | > 100 µM | > 100 µM | > 100 µM | > 100 µM | > 100 µM |  | 
